Data: patent publication US20170280720A1, “ARGININE […] INHIBITORS AND USES THEREOF” (EPIZYME, INC., priority 2014, published 2017)

target: T1, human PRMT1 (Homo sapiens, UniProt Q99873); assay: PRMT1 biochemical assay (3H-SAM Flashplate, peptide substrate); conditions: read-out: PRMT1_ IC50
T1 construct: GST-tagged PRMT1; made in house; host or cells: High Five insect cells (baculovirus, pFastBacI)
How it was run: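 FLAG-tagged full-length human PRMT1 (0.5 nM, GST-tagged, insect-cell expressed) preincubated 30 min at RT with compound, then biotinylated histone H4 36-50 peptide (20 nM) plus 200 nM 3H-SAM and 1.5 uM SAM in Bicine pH 7.6, 2% DMSO. 3H-methylated peptide captured on streptavidin Flashplate; IC50 from 3/4-parameter fit.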

T1 sequence (Q99873 with tags, fused parts or gaps): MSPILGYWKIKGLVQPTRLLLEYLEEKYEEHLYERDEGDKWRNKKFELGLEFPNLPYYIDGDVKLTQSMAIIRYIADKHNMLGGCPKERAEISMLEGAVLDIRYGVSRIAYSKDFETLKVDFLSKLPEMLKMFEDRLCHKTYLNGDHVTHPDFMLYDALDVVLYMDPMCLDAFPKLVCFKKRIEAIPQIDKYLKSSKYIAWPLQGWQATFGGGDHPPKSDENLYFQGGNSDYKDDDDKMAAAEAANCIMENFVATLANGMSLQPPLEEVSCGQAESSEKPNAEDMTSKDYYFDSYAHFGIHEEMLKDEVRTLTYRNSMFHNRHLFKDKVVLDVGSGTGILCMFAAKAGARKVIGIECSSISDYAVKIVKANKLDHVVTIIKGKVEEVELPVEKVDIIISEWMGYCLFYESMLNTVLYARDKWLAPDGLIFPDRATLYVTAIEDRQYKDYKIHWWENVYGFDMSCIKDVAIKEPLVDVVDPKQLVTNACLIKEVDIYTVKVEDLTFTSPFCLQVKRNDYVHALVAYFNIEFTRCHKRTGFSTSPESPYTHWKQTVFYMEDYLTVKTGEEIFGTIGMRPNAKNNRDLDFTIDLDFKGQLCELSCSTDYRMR

Row | IC50 | SMILES
1 | 154 nM | CC(C)n1ncc2c(C(=O)NCc3c(F)cccc3F)cc(-c3cccc(CN(C)CCN)c3)nc21 [Compound 37]
2 | 1040 nM | CNCCN(C)Cc1cccc(-c2cc(NC(=O)NC)c3cnn(C(C)C)c3n2)c1 [Compound 138]
3 | 128 nM | CC(C)n1ncc2c(C(=O)N(C)Cc3ccccc3)cc(-c3cccc(CN(C)CCN)c3)nc21 [Compound 31]
4 | 833 nM | CNCCN(C)Cc1cc(-c2cc(C(=O)NC3CCOCC3)c3cnn(C(C)C)c3n2)ccc1F [Compound 130]
5 | 69.6 nM | Cc1c(C(=O)NCc2ccccc2)cc(-c2cccc(CN(C)CCN)c2)c2cn[nH]c12 [Compound 15]
6 | 66.2 nM | CC(C)n1cc2c(N)cc(-c3cccc(CN(C)CCN)c3)nc2n1 [Compound 13]
7 | 69.2 nM | CC(C)n1ncc2c(C(=O)NCc3ccccc3)cc(-c3cccc(CN(C)CCN)c3)cc21 [Compound 14]
8 | 85 nM | CNCCN(C)Cc1cccc(-c2cc(Nc3ncc(C)s3)c3cnn(C(C)C)c3n2)c1 [Compound 20]
9 | 1480 nM | CC(C)n1ncc2c(C(=O)NC3CCOCC3)cc(-c3cccc(CN(C)CCN)c3)nc21 [Compound 148]
10 | 2410 nM | NCCNCc1ccc(-c2cnc3c(c2)CCC(=O)N3)cc1 [Compound 156]
11 | 808 nM | CCC(=O)c1cc(-c2cccc(CN(C)CCNC)c2)nc2c1cnn2C(C)C [Compound 128]
12 | 106 nM | CNCCN(C)Cc1cccc(-c2cc(C(=O)NCC3CCOCC3)c3cnn(C4CC4)c3n2)c1 [Compound 26]
13 | 3140 nM | CC(C)n1ncc2c(C(=O)NCc3ccccc3F)cc(-c3cccc(CNCCN)c3)nc21 [Compound 159]
14 | 4320 nM | CC(C)n1ncc2c(C(=O)NCC3CCN(C)CC3)cc(-c3cccc(CN(C)CCN(C)C)c3)nc21 [Compound 162]
15 | 69.7 nM | CNCCN(C)Cc1cccc(-c2nc(NCc3cc(C)nn3C)c3cnn(C4CC4)c3n2)c1 [Compound 17]
16 | 1110 nM | Cc1cc2cc(-c3ccc(CNCCN)cc3)ccc2[nH]1 [Compound 141]
17 | 4410 nM | CC(C)n1ncc2c(N3CCOCC3)cc(-c3cccc(CN(C)CCNC4CC4)c3)nc21 [Compound 163]
18 | 19.3 nM | CN(CCN)Cc1cccc(-c2nc(NCc3nccs3)c3cnn(C4CC4)c3n2)c1 [Compound 1]

Row | IC50 | SMILES
19 | 821 nM | CS(=O)(=O)N1CCC(Cn2cnc3ccc(-c4ccc(CNCCN)cc4)cc32)CC1 [Compound 129]
20 | 10000 nM | CNCCN(C)Cc1cccc(-c2cc(NS(C)(=O)=O)c3cnn(C(C)C)c3n2)c1 [Compound 170]
21 | 168 nM | CN(CCN)Cc1cccc(-c2nc(NCc3cccnc3)c3cnn(C4CC4)c3n2)c1 [Compound 40]
22 | 1110 nM | CN(CCN)Cc1cccc(-c2cc(C(=O)NC3CCOCC3)c3cnn(C4CC4)c3n2)c1 [Compound 142]
23 | 1660 nM | CNCCN(C)Cc1cccc(-c2cc(N)c3cnn(C(C)C)c3n2)c1 [Compound 151]
24 | 118 nM | CNCCN(C)Cc1cccc(-c2ccc3ncn(C4CCOCC4)c3c2)c1 [Compound 30]
25 | 196 nM | CC(C)n1cnc2cc(-c3ccc(CN(C)CCN)cc3)ccc21 [Compound 46]
26 | 153 nM | CNCCN(C)Cc1cccc(-c2ccc3c(c2)ncn3C(C)C)c1 [Compound 36]
27 | 189 nM | CNCCN(C)Cc1cccc(-c2cc(C(=O)N[C@@H](C)c3ccccc3)c3cnn(C(C)C)c3n2)c1 [Compound 44]
28 | 97.1 nM | CC(C)n1ncc2c(C(=O)N3CCc4ccccc4C3)cc(-c3cccc(CN(C)CCN)c3)nc21 [Compound 23]
29 | 114 nM | CNCCN(C)Cc1cccc(-c2cc(C(=O)NC3CCOCC3)c3cnn(C4CCC4)c3n2)c1 [Compound 29]
30 | 72.8 nM | CN(CCN)Cc1cccc(-c2nc(NC3CCOCC3)c3cnn(C(C)(C)C)c3n2)c1 [Compound 18]
31 | 1110 nM | Cc1cccc(CCn2cnc3ccc(-c4ccc(CNCCN)cc4)cc32)c1 [Compound 143]
32 | 755 nM | COc1cccc(CNC(=O)c2cncc(-c3ccc(CNCCN)cc3)c2)c1 [Compound 356]
33 | 114 nM | CNCCN(C)Cc1cccc(-c2ccc3ncn(C(C)C)c3c2)c1 [Compound 28]
34 | 188 nM | CC(C)n1ncc2c(C(=O)N3CCCCC3)cc(-c3cccc(CN(C)CCN)c3)nc21 [Compound 43]
35 | 152 nM | CNCCN(C)Cc1cccc(-c2ccc3cn(Cc4ccccc4)nc3n2)c1 [Compound 35]
36 | 1050 nM | CNCCN(C)Cc1cccc(-c2cc(NS(=O)(=O)N(C)C)c3cnn(C(C)C)c3n2)c1 [Compound 139]

The remaining lines, values behind:

Row | SMILES | IC50
37 | CNCCN(C)Cc1cccc(-c2cc(Oc3ccccc3)c3cnn(C(C)C)c3n2)c1 [Compound 45] | 194 nM
38 | CNCCN(C)Cc1cccc(-c2cc(C(=O)NCc3c(F)cccc3F)c3cnn(C(C)C)c3n2)c1 [Compound 47] | 209 nM
39 | CC(C)n1ncc2c(C(=O)NCc3ccccc3)cc(-c3cccc(CNCCN)c3)cc21 [Compound 134] | 925 nM
40 | CNCCN(C)Cc1cccc(-c2cc(NS(C)(=O)=O)c3cnn(C(C)C)c3n2)c1 [Compound 169] | 10000 nM
41 | CC(C)n1ncc2c(C(=O)NCc3ccc(F)cc3)cc(-c3cccc(CN(C)CCN)c3)nc21 [Compound 25] | 105 nM
42 | NCCNCc1ccc(-c2cnc3c(c2)OCC(=O)N3)cc1 [Compound 358] | 78.5 nM
43 | CC(C)n1cnc2cc(-c3cccc(CN(C)CCN)c3)ccc21 [Compound 32] | 128 nM
44 | CNCCN(C)Cc1cccc(-c2cc(C(=O)N[C@@H](C)c3ccccc3)c3cn[nH]c3n2)c1 [Compound 12] | 59.4 nM
45 | COc1ccc(Cn2cnc3ccc(-c4ccc(CNCCN)cc4)cc32)cc1 [Compound 132] | 848 nM
46 | CC(C)n1ncc2c(C(=O)N[C@@H](C)c3ccccc3)cc(-c3cccc(CNCCN)c3)nc21 [Compound 160] | 4100 nM
47 | Cc1ccc(-n2cnc3cc(-c4ccc(CNCCN)cc4)ccc32)cc1 [Compound 131] | 841 nM
48 | Cc1nn(C(C)C)c2nc(-c3cccc(CN(C)CCN)c3)cc(N3CCOCC3)c12 [Compound 22, N1-(3-(1-isopropyl-3-methyl-4-morpholino-1H-pyrazolo[3,4-b]pyridin-6-yl)benzyl)-N1-methylethane-1,2-diamine] | 95.2 nM
49 | COc1ccc(Cn2cnc3ccc(-c4ccc(CN(C)CCN)cc4)cc32)cc1 [Compound 16] | 69.6 nM
50 | CN(CCN)Cc1cccc(-c2cc(C(=O)NC3CCOCC3)c3cnn(C)c3n2)c1 [Compound 158] | 3020 nM
51 | CC(C)n1ncc2c(C(=O)NCC3CCOCC3)cc(-c3cccc(CN(C)CCNC4CC4)c3)nc21 [Compound 167] | 5890 nM
52 | N#Cc1cccc(Cn2cnc3ccc(-c4ccc(CNCCN)cc4)cc32)c1 [Compound 145] | 1270 nM
53 | NCCNCc1ccc(-c2ccc3ncn(C4CCNCC4)c3c2)cc1 [Compound 157] | 2430 nM
54 | CNCCN(C)Cc1cccc(-c2cc(OCC(F)(F)F)c3cnn(C(C)C)c3n2)c1 [Compound 154] | 2290 nM
55 | CC(C)n1ncc2c(C(=O)N[C@@H](C)c3ccccc3)cc(-c3cccc(CN(C)CCN)c3)cc21 [Compound 10] | 48.5 nM
56 | CN(CCN)Cc1ccc(-c2ccc3ncn(-c4ccccc4)c3c2)cc1 [Compound 19] | 82.3 nM
57 | CNCCN(C)Cc1cccc(-c2cc(NC3CC3)c3cnn(C(C)C)c3n2)c1 [Compound 11] | 51.6 nM

Row | SMILES | IC50
58 | CC(C)n1ncc2c(C(=O)NCc3c(F)cccc3F)cc(-c3cccc(CNCCN)c3)nc21 [Compound 168] | 7810 nM
59 | CNCCN(C)Cc1cccc(-c2cc(C(=O)NCc3ccccc3F)c3cnn(C(C)C)c3n2)c1 [Compound 38] | 159 nM
60 | COc1cccc(Cc2nc3ccc(-c4ccc(CNCCN)cc4)cc3n2C(C)C)c1 [Compound 135] | 932 nM
61 | CC(C)n1ncc2c(C(=O)N3CCCCC3)cc(-c3cccc(CNCCN)c3)nc21 [Compound 153] | 1710 nM
62 | CN(CCN)Cc1cccc(-c2cc(C(=O)NC3CCOCC3)c3cnn(CC(F)(F)F)c3n2)c1 [Compound 144] | 1200 nM
63 | CC(C)n1ncc2c(C(=O)NCc3ccccc3)cc(-c3cccc(CNCCN)c3)nc21 [Compound 155] | 2300 nM
64 | CNCCN(C)Cc1cccc(-c2cc(NC(=O)NC3CCOCC3)c3cnn(C(C)C)c3n2)c1 [Compound 133] | 866 nM
65 | CC(C)n1cnc2ccc(-c3ccc(CNCCN)cc3)cc21 [Compound 166] | 5090 nM
66 | CNCCN(C)Cc1cccc(-c2cnc3c(c2)OCC(=O)N3)c1 [Compound 355] | 512 nM
67 | CNCCN(C)Cc1cccc(-c2cnc3c(c2)c(Br)nn3CC2CCOCC2)c1 [Compound 39] | 164 nM
68 | CC(C)n1ncc2c(NC3CC3)cc(-c3cccc(CN(C)CCN)c3)nc21 [Compound 41] | 172 nM
69 | CNCCN(C)Cc1cccc(-c2cc(NS(=O)(=O)C(F)(F)F)c3cnn(C(C)C)c3n2)c1 [Compound 164] | 4500 nM
70 | CNCCN(C)Cc1cccc(-c2ccc3c(c2)ncn3CCOC)c1 [Compound 34] | 145 nM
71 | CNC(=O)Nc1cc(-c2cccc(CN(C)CCN)c2)nc2c1cnn2C(C)C [Compound 126] | 783 nM
72 | CC(C)n1ncc2c(C(=O)NCc3ccncc3)cc(-c3cccc(CNCCN)c3)nc21 [Compound 150] | 1600 nM
73 | CCn1ncc2c(C(=O)N[C@@H](C)c3ccccc3)cc(-c3cccc(CN(C)CCNC)c3)nc21 [Compound 33] | 140 nM
74 | CNCCN(C)Cc1cccc(-c2nc(NC3CCOCC3)c3cnn(C(C)(C)C)c3n2)c1 [Compound 27, N1-(3-(1-tert-butyl-4-(tetrahydro-2H-pyran-4-ylamino)-1H-pyrazolo[3,4-d]pyrimidin-6-yl)benzyl)-N1,N2-dimethylethane-1,2-diamine] | 106 nM
75 | CC(C)n1ncc2c(C(=O)N[C@@H](C)c3ccccc3)cc(-c3cccc(CN(C)CCN)c3)nc21 [Compound 136] | 934 nM
76 | CNCCN(C)Cc1cccc(-c2cc(C(=O)N3CCc4ccccc4C3)c3cnn(C(C)C)c3n2)c1 [Compound 42] | 185 nM
77 | CCS(=O)(=O)Nc1cc(-c2cccc(CN(C)CCNC)c2)nc2c1cnn2C(C)C [Compound 161] | 4170 nM
